Results: ChEMBL document CHEMBL1781948, “Cytotoxic veraguamides, alkynyl bromide-containing cyclic depsipeptides from the marine cyanobacterium cf. Oscillatoria margaritifera” (2011)
Activity calls are given as the source filed them. The calls are words filed in the database; no cut-off is given here. Where a SMILES comes first, the peptide text is derived from it. [ ]: non-standard residue; d: D form. The star is where a group is joined. Hmpa(2S,3S) = CC[C@H](C)[C@H](O)C(=O)O; X1 = C[C@H](C(=O)*)[C@H](O)CCCC#CBr; NMeV = CN[C@H](C(=O)O)C(C)C; Hiv = CC(C)[C@H](O)C(=O)O

Tested on: NCI-H460
Assay: Cytotoxicity against human H460 cells after 48 hrs by MTT assay
Assay type: functional

SMILES	LD50	CC50 (NCI-H460, 48 h, read-out: LD50 (the source's name)) [nM]
C#CCCC[C@H]1OC(=O)[C@H](C(C)C)N(C)C(=O)[C@@H]2CCCN2C(=O)[C@H]([C@@H](C)CC)OC(=O)[C@H](C(C)C)N(C)C(=O)[C@H](C(C)C)NC(=O)[C@H]1C	Active	
CC(C)[C@@H]1NC(=O)[C@@H](C)[C@@H](CCCC#CBr)OC(=O)[C@H](C(C)C)N(C)C(=O)[C@@H]2CCCN2C(=O)[C@H](C(C)C)OC(=O)[C@H](C(C)C)N(C)C1=O	Active	
CCOC(=O)[C@H](C(C)C)N(C)C(=O)[C@@H]1CCCN1C(=O)[C@@H](OC(=O)[C@H](C(C)C)N(C)C(=O)[C@@H](NC(=O)[C@@H](C)[C@H](O)CCCC#CBr)C(C)C)C(C)C (X1-V[NMeV][Hiv]P[NMeV]-OEt)	Active	
CCOC(=O)[C@H](C(C)C)N(C)C(=O)[C@@H]1CCCN1C(=O)[C@@H](OC(=O)[C@H](C(C)C)N(C)C(=O)[C@@H](NC(=O)[C@@H](C)[C@H](O)CCCC#CBr)C(C)C)[C@@H](C)CC (X1-V[NMeV][Hmpa(2S,3S)]P[NMeV]-OEt)	Active	
CC[C@H](C)[C@@H]1OC(=O)[C@H](C(C)C)N(C)C(=O)[C@H](C(C)C)NC(=O)[C@@H](C)[C@@H](CCCC#CBr)OC(=O)[C@H](C(C)C)N(C)C(=O)[C@@H]2CCCN2C1=O [VERAGUAMIDE A]		141
